Results published in ChEMBL document CHEMBL3992527, “Design and Synthesis of Novel Nonsteroidal Anti-Inflammatory Drugs and Carbonic Anhydrase Inhibitors Hybrids (NSAIDs-CAIs) for the Treatment of Rheumatoid Arthritis” (J Med Chem, 2017).
Calls of active or inactive are those of the source.

Key:
[1] = target: Carbonic anhydrase 9 (Homo sapiens, UniProt Q16790)
Description: Inhibition of recombinant human CA9 catalytic domain preincubated for 15 mins by stopped-flow CO2 hydration assay

[2] = target: Carbonic anhydrase 1 (Homo sapiens, UniProt P00915); assay: Inhibition of recombinant human CA1 preincubated for 15 mins by stopped-flow CO2 hydration assay
[3] = test system: Rattus norvegicus; assay: Effect on normal pain sensitivity in complete Freund's adjuvant-induced Sprague-Dawley rat rheumatoid arthritis model assessed as change in contralateral paw withdrawal threshold at 10 mg/kg, po administered once on day 14 post complete Freund's adjuvant challenge measured after 15 to 75 mins by analgesimetry; type: ADME, organism-based; conditions: in vivo
[4] = target: Carbonic anhydrase 7 (Homo sapiens, UniProt P43166); assay: Inhibition of recombinant human CA7 preincubated for 15 mins by stopped-flow CO2 hydration assay
[5] = test system: Rattus norvegicus; assay: (§1) Antihyperalgesic activity in complete Freund's adjuvant-induced Sprague-Dawley rat rheumatoid arthritis model assessed as improvement in postural imbalance by measuring difference between weight burdened on contralateral and ipsilateral paw at 10 mg/kg, po administered once on day 14 post complete Freund's adjuvant challenge measured after 15 to 30 mins by incapacitance test; type: functional, organism-based
[6] = test system: Rattus norvegicus; assay: (§2) Antihyperalgesic activity in complete Freund's adjuvant-induced Sprague-Dawley rat rheumatoid arthritis model assessed as increase in weight tolerance on ipsilateral paw at 10 mg/kg, po administered once on day 14 post complete Freund's adjuvant challenge measured after 45 mins post dose by analgesimetry; type: functional, organism-based
[7] = target: Carbonic anhydrase 2 (Homo sapiens, UniProt P00918); assay: Inhibition of recombinant human CA2 preincubated for 15 mins by stopped-flow CO2 hydration assay
[8] = target: Carbonic anhydrase 12 (Homo sapiens, UniProt O43570); assay: Inhibition of recombinant human CA12 preincubated for 15 mins by stopped-flow CO2 hydration assay
[9] = test system: Rattus norvegicus; assay: as §2, with “15 to 75” for “45”; type: functional, organism-based
[10] = test system: Rattus norvegicus; assay: as §1, with “100” for “10”; type: functional, organism-based
[11] = test system: Rattus norvegicus; assay: as §2, with “100” for “10”, “15 to 30” for “45”; type: functional, organism-based
[12] = test system: Rattus norvegicus; assay: as §2, with “as” for “as increase in”, “at” for “after”, “analgesimetry (reference value: 47.6 +/- 1.2 g)” for “analgesimetry”; type: functional
[13] = test system: Rattus norvegicus; assay: as §2, with “as” for “as increase in”, “at 30” for “after 45”, “analgesimetry (reference value: 47.6 +/- 1.2 g)” for “analgesimetry”; type: functional
[14] = target: Carbonic anhydrase 4 (Homo sapiens, UniProt P22748)
Description: Inhibition of recombinant human CA4 preincubated for 15 mins by stopped-flow CO2 hydration assay

[15] = test system: Rattus norvegicus; assay: Antihyperalgesic activity in complete Freund's adjuvant-induced Sprague-Dawley rat rheumatoid arthritis model assessed as improvement in postural imbalance by measuring difference between weight burdened on contralateral and ipsilateral paw at 10 mg/kg, po administered once on day 14 post complete Freund's adjuvant challenge measured at 30 mins post dose by incapacitance test (reference value: 45.6 +/- …; type: functional
[16] = test system: Rattus norvegicus; assay: as §2, with “at 75” for “after 45”; type: functional, organism-based
[17] = test system: Rattus norvegicus; assay: Antihyperalgesic activity in complete Freund's adjuvant-induced Sprague-Dawley rat rheumatoid arthritis model assessed as improvement in postural imbalance by measuring difference between weight burdened on contralateral and ipsilateral paw at 10 mg/kg, po administered once on day 14 post complete Freund's adjuvant challenge measured at 45 mins post dose by incapacitance test (reference value: 45.6 +/- …; type: functional
[18] = test system: Rattus norvegicus; assay: as §1, with “at 60” for “after 15 to 30”, “mins post dose” for “mins”; type: functional, organism-based
[19] = test system: Rattus norvegicus; assay: as §2, with “after 30 to” for “after”; type: functional, organism-based

Sequence of Carbonic anhydrase 1 (P00915 whole entry): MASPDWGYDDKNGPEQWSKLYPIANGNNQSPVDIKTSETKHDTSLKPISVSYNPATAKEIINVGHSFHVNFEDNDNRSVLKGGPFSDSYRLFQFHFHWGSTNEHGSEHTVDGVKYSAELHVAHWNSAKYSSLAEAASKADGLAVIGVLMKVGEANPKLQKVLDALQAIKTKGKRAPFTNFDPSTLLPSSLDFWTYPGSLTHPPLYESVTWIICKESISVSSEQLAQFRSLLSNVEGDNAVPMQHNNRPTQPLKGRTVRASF
Sequence of Carbonic anhydrase 7 (P43166 whole entry): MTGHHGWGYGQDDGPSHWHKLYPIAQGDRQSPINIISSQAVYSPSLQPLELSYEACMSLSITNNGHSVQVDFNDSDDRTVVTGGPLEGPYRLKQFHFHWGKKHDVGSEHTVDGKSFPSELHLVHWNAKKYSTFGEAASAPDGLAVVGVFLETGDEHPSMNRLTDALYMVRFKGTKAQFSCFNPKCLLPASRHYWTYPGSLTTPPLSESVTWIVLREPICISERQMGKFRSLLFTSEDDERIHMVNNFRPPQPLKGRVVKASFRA
Sequence of Carbonic anhydrase 4 (P22748 whole entry): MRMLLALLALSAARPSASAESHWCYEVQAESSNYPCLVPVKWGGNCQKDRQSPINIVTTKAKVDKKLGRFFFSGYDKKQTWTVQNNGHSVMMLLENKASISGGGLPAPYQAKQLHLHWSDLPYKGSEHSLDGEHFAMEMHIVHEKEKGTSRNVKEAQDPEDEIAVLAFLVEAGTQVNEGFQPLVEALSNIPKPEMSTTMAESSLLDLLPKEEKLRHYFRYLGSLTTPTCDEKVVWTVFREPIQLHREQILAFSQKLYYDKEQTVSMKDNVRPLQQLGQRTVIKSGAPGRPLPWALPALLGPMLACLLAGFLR
Sequence of Carbonic anhydrase 12 (O43570 whole entry): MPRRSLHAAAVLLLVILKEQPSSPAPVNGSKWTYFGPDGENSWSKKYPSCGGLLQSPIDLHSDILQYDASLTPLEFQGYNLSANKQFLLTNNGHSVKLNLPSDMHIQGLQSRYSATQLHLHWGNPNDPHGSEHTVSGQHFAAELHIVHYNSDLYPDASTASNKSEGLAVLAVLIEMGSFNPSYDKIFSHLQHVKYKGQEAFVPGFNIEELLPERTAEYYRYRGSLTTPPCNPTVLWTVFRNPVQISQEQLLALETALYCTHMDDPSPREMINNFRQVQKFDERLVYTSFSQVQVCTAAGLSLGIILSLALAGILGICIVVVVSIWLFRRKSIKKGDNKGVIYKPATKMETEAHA

Row | Ki [1] | Ki [2] | Ki [4] | Ki [7] | Ki [8] | Compound | Activity [3] | other results
1 | > 100 nM | > 100 nM | > 100 nM | > 100 nM | > 100 nM | CC(C(=O)NCCOc1ccc2ccc(=O)oc2c1)c1ccc(-c2ccccc2)c(F)c1 (racemic) | Non-Toxic | Activity [5]: Active; Activity [6]: Active
2 | > 100 nM | > 100 nM | > 100 nM | 85.4 nM |  | CC(C(=O)NCCOc1ccc2ccc(=O)oc2c1)c1cccc(C(=O)c2ccccc2)c1 (racemic) | Non-Toxic | Activity [9]: inactive
3 | > 100 nM | > 100 nM | > 100 nM | > 100 nM |  | COc1ccc2cc([C@H](C)C(=O)NCCOc3ccc4ccc(=O)oc4c3)ccc2c1 |  | 
4 | > 100 nM | > 100 nM | > 100 nM | > 100 nM | 39 nM | CC(C)Cc1ccc(C(C)C(=O)NCCOc2ccc3ccc(=O)oc3c2)cc1 (racemic) | Non-Toxic | Activity [12]: 61.3 g; Activity [13]: 63.8 g; Ki [14]: 9.1 nM; Activity [15]: 7.9 g; Activity [16]: Active; Activity [17]: 11.1 g; Activity [18]: Active
5 | > 100 nM | > 100 nM | > 100 nM | > 100 nM | > 100 nM | CC(C)Cc1ccc(C(C)C(=O)NCCOc2ccc3oc(=O)ccc3c2)cc1 (stereo not given) |  | Ki [14]: 0.44 nM
6 |  | > 100 nM | > 100 nM | > 100 nM |  | CC(C(=O)NCCOc1ccc2oc(=O)ccc2c1)c1ccc(-c2ccccc2)c(F)c1 (racemic) | Non-Toxic | Activity [9]: inactive
7 | > 100 nM | > 100 nM | > 100 nM | > 100 nM | > 100 nM | COc1ccc2cc([C@H](C)C(=O)NCCOc3ccc4oc(=O)ccc4c3)ccc2c1 |  | 

Second part, the molecule before the results:

Row | Compound | Ki [1] | Ki [2] | Ki [4] | Ki [7] | Ki [8] | Activity [3] | other results
8 | CC(C(=O)NCCOc1ccc2oc(=O)ccc2c1)c1cccc(C(=O)c2ccccc2)c1 (racemic) | 54.7 nM | > 100 nM | > 100 nM | > 100 nM | > 100 nM |  | 
9 | O=C(c1ccccc1)c1ccc2n1CCC2C(=O)NCCOc1ccc2oc(=O)ccc2c1 (racemic) | 31.8 nM | > 100 nM | > 100 nM | > 100 nM | > 100 nM |  | 
10 | COc1ccc2c(c1)c(CC(=O)NCCOc1ccc3ccc(=O)oc3c1)c(C)n2C(=O)c1ccc(Cl)cc1 | 20.1 nM | > 100 nM | > 100 nM | > 100 nM |  | Non-Toxic | Activity [9]: inactive
11 | CC(C)Cc1ccc(C(C)C(=O)O)cc1 (stereo not given) |  |  |  |  |  |  | Activity [10]: Active; Activity [11]: Active
12 | COc1ccc2c(c1)c(CC(=O)NCCOc1ccc3oc(=O)ccc3c1)c(C)n2C(=O)c1ccc(Cl)cc1 | 31.3 nM | > 100 nM | > 100 nM | > 100 nM |  | Non-Toxic | Activity [5]: Active; Activity [6]: Active
13 | O=C(Cc1ccccc1Nc1c(Cl)cccc1Cl)NCCOc1ccc2ccc(=O)oc2c1 |  | > 100 nM | > 100 nM | > 100 nM |  | Non-Toxic | Ki [14]: 9.1 nM; Activity [9]: inactive
14 | O=C(c1ccccc1)c1ccc2n1CCC2C(=O)NCCOc1ccc2ccc(=O)oc2c1 (racemic) | > 100 nM | > 100 nM | > 100 nM | > 100 nM | > 100 nM | Non-Toxic | Activity [6]: Active
15 | CC1=C(CC(=O)NCCOc2ccc3oc(=O)ccc3c2)c2cc(F)ccc2/C1=C\c1ccc([S+](C)[O-])cc1 (stereo not given) | 30.8 nM | > 100 nM | > 100 nM | > 100 nM |  |  | 
16 | O=C(Cc1ccccc1Nc1c(Cl)cccc1Cl)NCCOc1ccc2oc(=O)ccc2c1 |  | > 100 nM | > 100 nM | > 100 nM |  |  | Ki [14]: 5.6 nM
17 | CC1=C(CC(=O)NCCOc2ccc3ccc(=O)oc3c2)c2cc(F)ccc2/C1=C\c1ccc([S+](C)[O-])cc1 (stereo not given) | 27.9 nM | > 100 nM | > 100 nM | > 100 nM |  | Non-Toxic | Activity [19]: Active; Activity [5]: Active
